Molecular target: T1, human GPR120 (Homo sapiens, UniProt Q5NUL3)
T1 construct: expressed in transfected cells; host or cells: CHOA12 cells
T1 sequence (Q5NUL3 1-361): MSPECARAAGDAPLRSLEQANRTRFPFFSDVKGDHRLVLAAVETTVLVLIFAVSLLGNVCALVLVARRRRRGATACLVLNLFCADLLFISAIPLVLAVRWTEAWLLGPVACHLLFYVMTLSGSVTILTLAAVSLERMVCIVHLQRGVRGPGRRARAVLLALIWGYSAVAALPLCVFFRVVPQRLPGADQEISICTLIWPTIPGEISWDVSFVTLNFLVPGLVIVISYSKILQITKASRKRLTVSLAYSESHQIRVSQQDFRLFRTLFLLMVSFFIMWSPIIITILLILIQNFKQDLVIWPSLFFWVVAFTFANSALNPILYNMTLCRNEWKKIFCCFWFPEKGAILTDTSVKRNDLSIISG
Experiment: GPR120 pERK AlphaScreen SureFire assay (human)
Assay type: cell-based
Conditions: CHO cells stably transfected with short form of human GPR120
Text: GPR120 activity was monitored by measuring phosphorylation of ERK (pERK), since G protein receptors are known to activate the ERK signaling cascade either directly and/or through recruitment of arrestin that serves as a scaffold for downstream signaling events.
GPR120 pERK AlphaScreen SureFire Assay
The human and mouse GPR120-mediated intracellular phosphorylated ERK assays were established using CHOA12 cells stably transfected with the short form of human or mouse GPR120 receptor. Cells were cultured in growth medium consisting of F-12 media (Invitrogen Cat. #11765) with 5% Charcoal/Dextran FBS (Invitrogen Cat. #12676-029), 500 μg/mL GENETICIN® (Life Technologies Cat. #10131-027) and 250 μg/mL Zeocin (Invitrogen Cat. #R250-01). Cells were cryo preserved at a concentration of 2×10^7 cells/mL, in 90% Charcoal/Dextran FBS and 10% DMSO, and frozen in liquid nitrogen at a low passage number.
For the pERK assay, 2×10^7 cells/mL cryopreserved human and mouse cells were thawed rapidly in a 37° C. water bath and added to a T-225 flask containing 50 mL growth medium. The flasks were placed in a tissue culture incubator overnight (37° C., 5% CO2). The next day, cells were harvested with trypsin (Gibco Cat. #25300-054), resuspended in serum-containing growth medium and counted using a Cellometer and volume adjusted to a concentration of 0.6×10^6cells/mL. Cells were plated into 384-well clear bottom tissue culture plates (BD Cat. #353962) at 50 μL/well, for a density of 30,000 cells/well using a MULTIDROP® and incubated for 16-18 hours (overnight) at 37° C. with 5% CO2. The next day, cells were serum starved in 30 μL of F-12 media without any serum or antibiotics for 2 hours at 37° C.
Test compounds were 3-fold, 11-point serially diluted in DMSO in a REMP assay plate (Matrix Cat. #4307) by Tecan and 5 μL was transferred into an ECHO source plate (LABCYTE® Cat. #LC-0200). Cells were then stimulated with 50 nL of compound dilutions using ECHO liquid handler for 7 minutes at 37° C. Compounds ranged from final assay concentrations of 33.33 μM to 0.56 nM.
The media was then dumped and cells lysed with 20 μL of 1× Lysis buffer from the AlphaScreen SureFire Phospho-ERK 1/2 Kit (Perkin Elmer Cat. #6760617M). The lysis buffer was diluted 5-fold with water before use. The plate was agitated on a shaker for 10 minutes after which 2 μL was transferred into a 384-well white proxiplate (Perkin Elmer Cat. #6008289). The SureFire assay reagent mix was prepared by mixing 60 parts Reaction Buffer, 10 parts Activation Buffer, 1 part Donor Beads, 1 part Acceptor Beads (Perkin Elmer Cat. #TGRES10K). 3.5 μL/well of this reagent mix was manually added to the proxiplate with a multichannel pipettor. Plates were spun down at 1000 rpm for 2 minutes, followed by light-protected incubation at room temperature for 2 hours. The plates were read on the Alpha-technology compatible Envision multilabel plate reader using AlphaScreen protocol according to manufacturer's specifications. The agonist effect of compounds was expressed as 100×(average sample−average blank)/(average total−average blank) where sample is the luminescence activity in the presence of test compound, blank is equal to the luminescence activity in the presence of DMSO control and the total is signal induced by 50 μM linolenic acid as reference compound. Activation data for the test compound over a range of concentrations was plotted as percentage activation of the test compound (100%=maximum response). After correcting for background, EC50 values were determined The EC50 is defined as the concentration of test compound which produces 50% of the maximal response and was quantified using the 4 parameter logistic equation to fit the data.
The human and mouse GPR120-mediated intracellular phosphorylated ERK assays were also established using CHO-K1 cells stably transfected with the short form of human or mouse GPR120 receptor. […]

Structure (SMILES)	EC50
O=C(O)[C@@H]1C[C@H]1CCC12CCC(c3cccc(Oc4cc(F)cc(F)c4)c3)(CC1)OC2 [Example 72, (1R,2R)-2-(2-(1-(3-(3,5-difluorophenoxy)phenyl)-2-oxabicyclo[2.2.2]octan-4-yl)ethyl) cyclopropanecarboxylic acid]	490 nM
CC(C)COc1cccc(C23CCC(CCOCC(=O)O)(CC2)CO3)c1 [Example 9, 2-(2-(1-(3-Isobutoxyphenyl)-2-oxabicyclo[2.2.2]octan-4-yl)ethoxy)acetic acid]	1280 nM
CC(C)=COc1cccc(C23CCC(CCOCC(=O)O)(CC2)CO3)c1 [Example 20, 2-(2-(1-(3-(2-Methylprop-1-enyloxy)phenyl)-2-oxabicyclo[2.2.2]octan-4-yl)ethoxy)acetic acid]	650 nM
O=C(O)C1CC1CCCC12CCC(c3cccc(Oc4ccccc4)c3)(CC1)OC2 (centres unmarked) [Example 120, 2-(3-(1-(3-Phenoxyphenyl)-2-oxabicyclo[2.2.2]octan-4-yl)propyl) cyclopropane carboxylic acid]	2210 nM
O=C(O)C1CC1CCC12CCC(c3cc(F)cc(Oc4ccccc4)c3)(CC1)OC2 (single isomer, unassigned) [Example 63, 2-(2-(1-(3-Fluoro-5-phenoxyphenyl)-2-oxabicyclo[2.2.2]octan-4-yl)ethyl)cyclopropanecarboxylic acid]	370 nM
O=C(O)[C@@H]1C[C@H]1CCC12CCC(c3cccc(Oc4cccc(F)c4)c3)(CC1)OC2 (single isomer, unassigned) [Example 65, 2-(2-(1-(3-(3-Fluorophenoxy)phenyl)-2-oxabicyclo[2.2.2]octan-4 yl)ethyl)cyclopropane carboxylic acid]	330 nM
O=C(O)COCCC12CCC(c3cccc(Oc4ccccc4)c3)(CC1)CO2 [Example 31, 2-(2-(4-(3-Phenoxyphenyl)-2-oxabicyclo[2.2.2]octan-1-yl)ethoxy)acetic acid]	280 nM
Cc1cc(Oc2cc(C34CCC(CCOCC(=O)O)(CC3)OC4)ccc2F)ccc1C#N [Example 114]	2730 nM
COc1cc(Oc2ccc(F)c(F)c2)cc(C23CCC(CCOCC(=O)O)(CC2)CO3)c1 [Example 91, 2-(2-(1-(3-(3,4-difluorophenoxy)-5-methoxyphenyl)-2-oxabicyclo[2.2.2]octan-4-yl)ethoxy)acetic acid]	630 nM
O=C(O)COCCC12CCC(c3cc(F)cc(Oc4cccc(F)c4)c3)(CC1)OC2 [Example 55, 2-(2-(1-(3-Fluoro-5-(3-fluorophenoxy)phenyl)-2-oxabicyclo[2.2.2]octan-4-yl)ethoxy) acetic acid]	330 nM
Cc1ccc(Oc2cc(F)cc(C34CCC(CCOCC(=O)O)(CC3)OC4)c2)cc1F [Example 108, 2-(2-(4-(3-Fluoro-5-(3-fluoro-4-methylphenoxy)phenyl)-2-oxabicyclo[2.2.2]octan-1-yl)ethoxy)acetic acid]	730 nM
COc1cc(Oc2ccc(C)c(F)c2)cc(C23CCC(CCOCC(=O)O)(CC2)CO3)c1 [Example 93, 2-(2-(1-(3-(3-fluoro-4-methylphenoxy)-5-methoxyphenyl)-2-oxabicyclo[2.2.2]octan-4-yl)ethoxy)acetic acid]	520 nM
O=C(O)COCCC12CCC(c3cccc(Oc4ccc(F)cc4)c3)(CC1)CO2 [Example 105]	3440 nM
O=C(O)COCCC12CCC(c3cc(F)c(F)c(Oc4ccc(F)cc4)c3)(CC1)OC2 [Example 95, 2-(2-(1-(3,4-Difluoro-5-(4-fluorophenoxy)phenyl)-2-oxabicyclo[2.2.2]octan-4-yl)ethoxy) acetic acid]	350 nM
OC[C@H](O)CCCC12CCC(c3cccc(Oc4ccccc4)c3)(CC1)OC2 (single isomer, unassigned) [Example 60, R-5-(1-(3-phenoxyphenyl)-2-oxabicyclo[2.2.2]octan-4-yl)pentane-1,2-diol]	570 nM
O=C(O)COCCCC12CCC(c3cccc(Oc4ccccc4)c3)(CC1)CO2 [Example 110, 2-(3-(4-(3-Phenoxyphenyl)-2-oxabicyclo[2.2.2]octan-1-yl)propoxy)acetic acid]	490 nM
O=C(O)/C=C/CCC12CCC(c3cccc(Oc4ccccc4)c3)(CC1)OC2 [Example 11, (E)-5-(1-(3-Phenoxyphenyl)-2-oxabicyclo[2.2.2]octan-4-yl)pent-2-enoic acid]	100 nM
COc1cccc(Oc2cccc(C34CCC(CCOCC(=O)O)(CC3)CO4)c2)c1 [Example 22, 2-(2-(1-(3-(3-Methoxyphenoxy)phenyl)-2-oxabicyclo[2.2.2]octan-4-yl)ethoxy)acetic acid]	380 nM
O=C(O)COCCC12CCC(c3cccc(C4=CCCC4)c3)(CC1)OC2 [Example 24, 2-(2-(1-(3-Cyclopentenylphenyl)-2-oxabicyclo[2.2.2]octan-4-yl)ethoxy)acetic acid]	800 nM
CC(C)Oc1cccc(C23CCC(CCOCC(=O)O)(CC2)CO3)c1 [Example 7, 2-(2-(1-(3-Isopropoxyphenyl)-2-oxabicyclo[2.2.2]octan-4-yl)ethoxy)acetic acid]	7540 nM
O=C(O)C[C@@H]1C[C@H]1CC12CCC(c3cccc(Oc4ccccc4)c3)(CC1)OC2 (single isomer, unassigned) [Example 18]	410 nM
O=C(O)COCCC12CCC(c3ccc(F)c(Oc4ccccc4)c3)(CC1)OC2 [Example 87, 2-(2-(1-(4-fluoro-3-phenoxyphenyl)-2-oxabicyclo[2.2.2]octan-4-yl)ethoxy)acetic acid]	410 nM
Cc1cc(Oc2cc(F)cc(C34CCC(CCOCC(=O)O)(CC3)CO4)c2)ccc1F [Example 81, 2-(2-(1-(3-fluoro-5-(4-fluoro-3-methylphenoxy)phenyl)-2-oxabicyclo [2.2.2]octan-4-yl)ethoxy) acetic acid]	520 nM
O=C(O)CNC(=O)CC12CCC(c3cccc(Oc4ccccc4)c3)(CC1)OC2 [Example 27, 2-(2-(1-(3-Phenoxyphenyl)-2-oxabicyclo[2.2.2]octan-4-yl)acetamido)acetic acid]	5020 nM
O=C(O)COCCC12CCC(c3cc(F)cc(OCC(F)(F)F)c3)(CC1)OC2 [Example 54, 2-(2-(1-(3-Fluoro-5-(2,2,2-trifluoroethoxy)phenyl)-2-oxabicyclo[2.2.2]octan-4-yl)ethoxy)acetic acid]	3470 nM
COc1ccc(Oc2cccc(C34CCC(CCOCC(=O)O)(CC3)OC4)c2)cc1F [Example 100, 2-(2-(4-(3-(3-Fluoro-4-methoxyphenoxy)phenyl)-2-oxabicyclo[2.2.2]octan-1-yl)ethoxy) acetic acid]	550 nM
O=C(O)COCCC12CCC(c3cccc(Cc4ccccc4)c3)(CC1)OC2 [Example 50, 2-(2-(1-(3-Benzylphenyl)-2-oxabicyclo[2.2.2]octan-4-yl)ethoxy)acetic acid]	1360 nM
O=C(O)COCCC12CCC(c3cccc(Oc4cccnc4)c3)(CC1)CO2 [Example 104]	7780 nM
Cc1ccc(Oc2cc(F)cc(C34CCC(CCOCC(=O)NO)(CC3)CO4)c2)cc1F [Example 94, 2-(2-(1-(3-Fluoro-5-(3-fluoro-4-methylphenoxy)phenyl)-2-oxabicyclo[2.2.2]octan-4-yl)ethoxy)-N-hydroxyacetamide]	1160 nM
